Experiments:
Assay type in all cases: binding
panel of 442 kinases [1] = molecular target: T1, panel of 442 kinases (Homo sapiens, UniProt Q13164); conditions: Compound Concentration 10 µM
T1 construct: purchased KINOMEscan
Excerpt: (§1) We assessed the selectivity of members of this scaffold using the KINOMEscan methodology across a near comprehensive panel of 442 kinases [[18,27]].

panel of 442 kinases [2] = molecular target: T2, panel of 442 kinases (Homo sapiens, UniProt P00533, L858R); conditions: Compound Concentration 10 µM
T2 construct: purchased KINOMEscan
Excerpt: as §1

panel of 442 kinases [3] = molecular target: T3, panel of 442 kinases (Homo sapiens, UniProt Q9H1R3); conditions: Compound Concentration 10 µM
T3 construct: purchased KINOMEscan
Excerpt: as §1

panel of 442 kinases [4] = conditions: for KINOMEscan: EGFR(L747-E749del, A750P) / KINOMEscan: EGFR(L747-S752del, P753S) / KINOMEscan: EGFR(L747-T751del,Sins) / KINOMEscan: FLT3(ITD): Compound Concentration 10 µM; for Number of score not higher than 10: of 442 total assayed kinases, % Ctrl ≤ 10; for Number of score not higher than 10 / S10: compound concentration 10 µM; for S10: selectivity score = (number of kinases with %Ctrl ≤ 10)/total number of kinases tested (442)
Excerpt: as §1

T1 sequence (Q13164 whole entry): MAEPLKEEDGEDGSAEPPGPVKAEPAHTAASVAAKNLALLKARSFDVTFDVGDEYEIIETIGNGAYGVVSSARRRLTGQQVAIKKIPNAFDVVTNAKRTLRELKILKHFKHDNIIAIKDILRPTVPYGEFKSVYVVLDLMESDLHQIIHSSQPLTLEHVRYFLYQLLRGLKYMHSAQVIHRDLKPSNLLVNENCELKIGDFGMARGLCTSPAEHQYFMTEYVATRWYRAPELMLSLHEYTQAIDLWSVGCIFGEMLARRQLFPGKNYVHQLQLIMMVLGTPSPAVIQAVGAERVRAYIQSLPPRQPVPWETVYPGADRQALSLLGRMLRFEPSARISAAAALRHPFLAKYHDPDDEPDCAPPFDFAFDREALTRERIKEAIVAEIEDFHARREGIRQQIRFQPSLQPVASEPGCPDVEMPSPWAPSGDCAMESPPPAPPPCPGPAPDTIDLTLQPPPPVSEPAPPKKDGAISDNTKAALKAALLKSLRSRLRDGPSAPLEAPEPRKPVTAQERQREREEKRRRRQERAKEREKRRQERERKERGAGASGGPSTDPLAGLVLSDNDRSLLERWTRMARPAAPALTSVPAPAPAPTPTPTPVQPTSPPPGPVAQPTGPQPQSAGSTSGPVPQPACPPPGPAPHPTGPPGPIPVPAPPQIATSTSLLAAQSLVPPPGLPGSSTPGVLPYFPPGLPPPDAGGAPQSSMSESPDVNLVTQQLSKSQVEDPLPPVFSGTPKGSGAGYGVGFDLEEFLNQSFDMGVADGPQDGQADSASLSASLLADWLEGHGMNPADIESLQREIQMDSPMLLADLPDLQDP
T2 sequence (P00533 25-1210 L858R): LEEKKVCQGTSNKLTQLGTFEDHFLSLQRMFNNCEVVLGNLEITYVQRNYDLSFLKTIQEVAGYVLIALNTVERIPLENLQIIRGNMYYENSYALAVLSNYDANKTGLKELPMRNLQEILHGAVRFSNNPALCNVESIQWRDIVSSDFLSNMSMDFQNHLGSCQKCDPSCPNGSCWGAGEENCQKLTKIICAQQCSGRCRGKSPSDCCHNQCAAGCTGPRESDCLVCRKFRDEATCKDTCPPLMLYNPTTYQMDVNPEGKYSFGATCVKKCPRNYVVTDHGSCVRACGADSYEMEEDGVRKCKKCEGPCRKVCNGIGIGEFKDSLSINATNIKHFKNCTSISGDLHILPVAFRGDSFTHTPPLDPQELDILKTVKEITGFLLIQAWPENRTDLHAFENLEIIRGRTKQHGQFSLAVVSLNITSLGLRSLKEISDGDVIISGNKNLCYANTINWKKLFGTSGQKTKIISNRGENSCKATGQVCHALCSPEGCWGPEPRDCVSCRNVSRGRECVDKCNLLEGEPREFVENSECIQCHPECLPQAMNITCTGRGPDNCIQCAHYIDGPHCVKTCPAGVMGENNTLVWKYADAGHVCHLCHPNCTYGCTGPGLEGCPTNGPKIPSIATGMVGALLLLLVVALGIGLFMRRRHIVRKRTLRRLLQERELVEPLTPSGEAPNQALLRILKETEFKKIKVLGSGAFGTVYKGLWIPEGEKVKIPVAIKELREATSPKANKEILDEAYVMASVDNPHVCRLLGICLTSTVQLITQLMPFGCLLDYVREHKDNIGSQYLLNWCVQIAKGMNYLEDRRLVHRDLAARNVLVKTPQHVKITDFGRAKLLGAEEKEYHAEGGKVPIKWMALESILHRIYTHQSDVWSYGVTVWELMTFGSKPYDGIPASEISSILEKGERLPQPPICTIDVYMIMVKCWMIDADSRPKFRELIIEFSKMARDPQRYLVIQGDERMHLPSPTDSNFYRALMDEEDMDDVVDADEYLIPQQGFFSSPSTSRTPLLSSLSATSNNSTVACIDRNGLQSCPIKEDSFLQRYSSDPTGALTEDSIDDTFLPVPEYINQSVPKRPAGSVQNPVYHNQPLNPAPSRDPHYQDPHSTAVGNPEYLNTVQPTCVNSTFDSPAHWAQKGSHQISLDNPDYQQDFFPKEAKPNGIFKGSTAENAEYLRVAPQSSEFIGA
T3 sequence (Q9H1R3 whole entry): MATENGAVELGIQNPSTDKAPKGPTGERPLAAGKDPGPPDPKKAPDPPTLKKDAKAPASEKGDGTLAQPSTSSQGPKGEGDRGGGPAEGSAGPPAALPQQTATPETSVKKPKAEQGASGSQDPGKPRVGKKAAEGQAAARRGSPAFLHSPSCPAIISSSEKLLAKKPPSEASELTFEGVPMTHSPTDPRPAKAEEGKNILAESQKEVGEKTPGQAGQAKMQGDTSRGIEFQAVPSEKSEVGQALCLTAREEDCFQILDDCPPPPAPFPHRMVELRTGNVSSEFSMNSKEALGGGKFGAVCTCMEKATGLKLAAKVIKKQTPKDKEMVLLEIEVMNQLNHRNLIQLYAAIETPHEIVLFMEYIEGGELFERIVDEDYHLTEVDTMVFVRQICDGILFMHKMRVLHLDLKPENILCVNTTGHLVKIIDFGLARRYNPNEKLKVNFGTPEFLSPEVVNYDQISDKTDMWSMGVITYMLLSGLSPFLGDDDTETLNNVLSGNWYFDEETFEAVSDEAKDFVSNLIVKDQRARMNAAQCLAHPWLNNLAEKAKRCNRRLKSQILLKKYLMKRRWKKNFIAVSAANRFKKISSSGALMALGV

| Compound | KINOMEscan: ERK5 (panel of 442 kinases [1]) | KINOMEscan: EGFR(L858R) (panel of 442 kinases [2]) | KINOMEscan: MYLK2 (panel of 442 kinases [3]) | KINOMEscan: EGFR(L747-E749del, A750P) (panel of 442 kinases [4]) | KINOMEscan: EGFR(L747-S752del, P753S) (panel of 442 kinases [4]) | KINOMEscan: EGFR(L747-T751del,Sins) (panel of 442 kinases [4]) | KINOMEscan: FLT3(ITD) (panel of 442 kinases [4]) | Number of score not higher than 10 (panel of 442 kinases [4]) | S10 (panel of 442 kinases [4]) | KINOMEscan selectivity score (S10) (panel of 442 kinases [4]; screened at 10 μM, 442 kinases) |
| --- | --- | --- | --- | --- | --- | --- | --- | --- | --- | --- |
| CCOc1cc(C(=O)N2CCC(N3CCN(C)CC3)CC2)ccc1Nc1ncc2c(n1)N(C1CCCC1)c1ccccc1C(=O)N2C [Compound 26] | 0.1 | 100 | 100 | 100 | 100 | 100 | 100 | 3 | 0.007 |  |
| COc1cc(C(=O)N2CCC(N3CCN(C)CC3)CC2)ccc1Nc1ncc2c(n1)N(C1CCCC1)c1ccccc1C(=O)N2C [Compound 25, 11-cyclopentyl-2-((2-methoxy-4-(4-(4-methylpiperazin-1-yl)piperidine-1-carbonyl)phenyl)amino)-5-methyl-5H-benzo[e]pyrimido[5,4-b][1,4]diazepin-6(11H)-one] | 0.05 | 83 | 100 | 85 | 74 | 76 | 100 | 8 | 0.018 | 0.018 |
| COc1cc(C(=O)N2CCC(N3CCN(C)CC3)CC2)ccc1Nc1ncc2c(n1)N1CCc3cccc(c31)C(=O)N2C [Compound 24] |  | 62 | 85 |  |  |  |  |  |  |  |
| COc1cc(C(=O)N2CCC(N3CCN(C)CC3)CC2)ccc1Nc1ncc2c(n1)N(C)c1ccccc1C(=O)N2C [15 (LRRK2-IN-1)] | 0.05 | 79 | 98 | 78 | 84 | 100 | 100 | 16 | 0.036 |  |
